Data published in ChEMBL document CHEMBL1146796, “Design, synthesis and cytotoxic studies on the simplified oxy analog of eleutherobin” (2004).

Experiments:
HBL-100 [1] = assay: (§1) Cytotoxic effect against HBL-100 (human breast cancer cell lines) by MTT assay at 10 ug concentration; format: functional, cell-based
HBL-100 [2] = assay: Cytotoxic effect against HBL-100 (human breast cancer cell lines) by MTT assay at 100 ug concentration; format: functional
HBL-100 [3] = assay: as §1; format: functional

CC1(C)O[C@@H]2[C@H](O1)[C@@H]1OCc3ccccc3C[C@@H](O)[C@H]2O1
Absorbance (HBL-100 [1]): 0.153
Asorbance (HBL-100 [2]): 0.081
Inhibition (HBL-100 [2]): 63.3%
Viability (HBL-100 [2]): 36.69%
Inhibition (HBL-100 [3]): 30.62%
Viability (HBL-100 [3]): 69.37%
